Test results as given in patent US20150374676A1, “HELICASE-PRIMASE INHIBITORS FOR USE IN A METHOD OF TREATING ALZHEIMER'S DISEASE” (AICURIS GMBH & CO. KG, priority 2013, published 2015).
Read-outs that look alike come from different tables or passages of the source.

How the values were obtained:
[1] = effect of food intake on pharmacokinetics; format: in vivo; details: human blood plasma
Description: Further, in accordance with the invention the person skilled in the art understands that food intake prior to administration of the crystalline mono mesylate monohydrate salt of N-[5-(aminosulfonyl)-4-methyl-1,3-thiazol-2-yl]-N-methyl-2-[4-(2-pyridinyl)phenyl]-acetamide of a subject may influence positively the in vivo PK/PD profile of the resultant free base of N-[5-(aminosulfonyl)-4-methyl-1,3-thiazol-2-yl]-N-methyl-2-[4-(2-pyridinyl)phenyl]-acetamide. Thus, in accordance with the invention a decreased absorption rate and a delayed tmax of the resultant free base of N-[5-(aminosulfonyl)-4-methyl-1,3-thiazol-2-yl]-N-methyl-2-[4-(2-pyridinyl)phenyl]-acetamide may be expected in […] subjects after administration of crystalline mono mesylate monohydrate salt of N-[5-(aminosulfonyl)-4-methyl-1,3-thiazol-2-yl]-N-methyl-2-[4-(2-pyridinyl)phenyl]-acetamide.

[2] = Multiple-dose escalation, steady state pharmacokinetics in healthy volunteers; format: in vivo, human; details: for Ctrough: free base in plasma; for AUC / Cmax: human, plasma, oral
Description: For three doses of the mono mesylate monohydrate salt of N-[5-(aminosulfonyl)-4-methyl-1,3-thiazol-2-yl]-N-methyl-2-[4-(2-pyridinyl)phenyl]acetamide in formulations in accordance with table a, wherein the particle size distribution is preferably defined by d(0.1) from 2 to 100 μm, d(0.5) from 30 to 210 μm and d(0.9) from 70 to 400 μm with a specific surface area of the particles less than 1.0 m^2/g, and more preferably defined by d(0.1) from 10 to 75 μm, d(0.5) from 100 to 175 μm, d(0.9) from 200 to 350 μm with a specific surface area of the particles less than 0.3 m^2/g, investigated (5, 25, and 100 mg as free base equivalent; once per day oral administration, […]), the individual concentration-time curves of the free base N-[5-(aminosulfonyl)-4-methyl-1,3-thiazol-2-yl]Nmethyl-2-[4-(2-pyridinyl)phenyl]acetamide at day 1 (after the first administration) were very similar in their general shape and slope to those profiles obtained in the single dose escalation trial (see Example a).
At steady state, there was a low inter-individual variability of minimal or “trough” concentrations with CVs (coefficient of variations) between 16.7 and 21.7% (day 21). For all doses, the individual and mean concentration-time curves of the free base of N-[5-(aminosulfonyl)-4-methyl-1,3-thiazol-2-yl]-N-methyl-2-[4-(2-pyridinyl)phenyl]acet-amide at day 21 were very similar in their shape and slope to those profiles obtained at day 1.
Table c: Steady state pharmacokinetic parameters of the free base N-[5-(aminosulfonyl)-4-methyl-1,3-thiazol-2-yl]-N-methyl-2-[4-(2-pyridinyl)phenyl]acetamide at day 21 after daily administrations of 5, 25, or 100 mg as free base equivalent of the mono mesylate monohydrate salt of N-[5-(aminosulfonyl)-4-methyl-1,3-thiazol-2-yl]-N-methyl-2-[4-(2-pyridinyl)phenyl]acetamide in formulations in accordance with table a, wherein the particle size distribution is preferably defined by d(0.1) from 2 to 100 μm, d(0.5) from 30 to 210 μm and d(0.9) from 70 to 400 μm with a specific surface area of the particles less than 1.0 m^2/g, and more preferably defined by d(0.1) from 10 to 75 μm, d(0.5) from 100 to 175 μm, d(0.9) from 200 to 350 μm with a specific surface area of the particles less than 0.3 m^2/g, to healthy volunteers (n=12 per dose).

[3] = as above; format: in vivo, human; details: steady state after once daily single doses for 21 days
[4] = fraction unbound in cell culture medium; format: in vitro ADME
[5] = 5 mg free base equivalent once daily, day 21 steady state, healthy volunteers n=12
[6] = 25 mg free base equivalent once daily, day 21 steady state, healthy volunteers n=12
[7] = 100 mg free base equivalent once daily, day 21 steady state, healthy volunteers n=12

## CS(=O)(=O)O.Cc1nc(N(C)C(=O)Cc2ccc(-c3ccccn3)cc2)sc1S(N)(=O)=O [mono mesylate monohydrate salt, N-[5-(aminosulfonyl)-4-methyl-1,3-thiazol-2-yl]-N-methyl-2-[4-(2-pyridinyl)-phenyl]acetamide mono methanesulfonic acid monohydrate]
[1]
  t1/2z with food intake prior to administration: remains constant
[1]; HPLC, worded 'may lead to'
  increase in AUC with food intake prior to administration: at least 10%
  increase in mean Cmax with food intake prior to administration: at least 25%
[2]; [5]
  Cav: 213 ng/mL
  t1/2z: 82.6 h
  Ctrough: 187 ng/mL
[2]; 25 mg dosage as free base equivalent, steady state after once daily single doses for 21 days
  t1/2z on average: 69 ± 6 h
[2]; [6]
  Cav: 977 ng/mL
  Cmax,ss: 1358 ng/mL
  t1/2z: 68.6 h
  Ctrough: 832 ng/mL
[2]; 25 mg free base equivalent once daily, day 21 steady state, healthy volunteers n=12, dosing interval 24 hours
  AUCτ: 23430 ng·h/mL
[2]; [7]
  Cav: 4540 ng/mL
  Cmax,ss: 6358 ng/mL
  t1/2z: 59.8 h
  Ctrough: 3743 ng/mL
[2]; 100 mg free base equivalent once daily, day 21 steady state, healthy volunteers n=12, dosing interval 24 hours
  AUCτ: 108800 ng·h/mL
[2]; 200 mg dosage as free base equivalent, steady state after once daily single doses for 21 days
  t1/2z on average: 57.19 ± 5.451 h
[2]; 5, 25, 100 mg free base equivalent, after the first administration
  dose dependence of AUC0-24h and Cmax at day 1: dose-proportional increases
[2]; 5, 25, 100 mg once daily
  dose dependence of exposure at steady state (Ctrough, AUCτ, Cmax,ss, Cav): dose-proportional increase
[2]; all doses applied (5, 25, 100 mg once daily)
  accumulation ratio R for AUC and Cmax: ~5
[2]; all doses investigated (5, 25, 100 mg once daily), steady state
  apparent total clearance (CL/F): 0.99 to 1.08 L/h
[2]; 200 mg, 100 mg dosage as free base equivalent, steady state after once daily single doses for 21 days, read-out: AUCτ,ss
  AUC: 168000 ± 38000 ng·h/mL
[2]; 5 mg free base equivalent once daily, day 21 steady state, healthy volunteers n=12, dosing interval 24 hours, read-out: AUCτ
  AUC: 5090 ng·h/mL
[2]; 5 mg free base equivalent once daily, day 21 steady state, healthy volunteers n=12, read-out: Cmax,ss
  Cmax: 301 ng/mL
[2]; 100 mg dosage as free base equivalent, steady state after once daily single doses for 21 days, read-out: mean maximum blood plasma concentration at steady state (mean Cmax,ss) of the free base
  Cmax: 6360 ± 1700 ng/mL
[2]; 200 mg dosage as free base equivalent, steady state after once daily single doses for 21 days, read-out: mean maximum blood plasma concentration at steady state (mean Cmax,ss) of the free base
  Cmax: 9990 ± 2610 ng/mL
[3]; 100 mg dosage as free base equivalent
  t1/2z on average: 60 ± 4 h
[3]; human, plasma, oral, 25 mg dosage as free base equivalent
  AUC: 23400 ± 3020 ng·h/mL
[3]; human, plasma, oral, 25 mg dosage as free base equivalent, read-out: mean maximum blood plasma concentration at steady state (mean Cmax,ss) of the free base
  Cmax: 1360 ± 167 ng/mL
[3]; human, plasma, oral, 100 mg dosage as free base equivalent
  AUC: 109000 ± 28600 ng·h/mL
[4]
  fraction unbound: 0.71
